The results in this text go back to patent publication US20060233870A1, “Compositions and methods for drug delivery” (Noven Pharmaceuticals, Inc., priority 1999, published 2006).

Data set [1] is described as follows: solubility of the drug in the acrylic-based polymer dermal composition.

For the compound `O=C(CCCN1CCC(O)(c2ccc(Cl)cc2)CC1)c1ccc(F)cc1` [haloperidol], the cumulative haloperidol flux entry (increasing amount of non-functional acrylic (HRJ 4483) versus carboxy functional DT 87-2196, FIG. 1, Examples 2 and 4 and Comparative Example 1 plotted) is recorded as “flux of the haloperidol across the skin increases”. The “solubility of the haloperidol in the dermal composition” value in data set [1] (increasing amount of non-functional acrylic in the dermal composition) is on record as “reduces the solubility of the haloperidol”.

Take `CN1CCCC1c1cccnc1` (centres unmarked) [nicotine]: for the setting “increasing amount of non-functional acrylic (HRJ 4483) versus carboxy functional DT 87-2852, FIG. 2, Examples 5-7 and Comparative Example 2 plotted”, the nicotine flux result is “increasing flux”.

Consider `Clc1cccc(Cl)c1N=C1NCCN1` [clonidine], for which, under “increasing amount of hydroxy functional acrylic (DT 87-2287) versus carboxy functional DT 87-2852, FIG. 3, Examples 9-11 and Comparative Example 3 plotted”, the clonidine flux result is listed as “increases the flux of the clonidine”. Besides, the “solubility of clonidine in the acrylic” value in data set [1] (in hydroxy functional acrylic compared with carboxy functional acrylic) is “lower solubility”.
